The test system of one data set is HeLa. The data set can be described thus: Cytotoxicity against human HeLa cells assessed as inhibition of cell growth incubated for 1 hr by MTT assay. It is filed as functional, cell-based.
The next data set has as its system MCF7. The data set can be described thus: Cytotoxicity against human MCF7 cells assessed as inhibition of cell growth incubated for 1 hr by MTT assay. It is filed as functional, cell-based. Particulars: MCF7, 1 h. On the technique in general: Formazan colour is commonly taken as a measure of viable cells.
Data set [1] in a line: Cytotoxicity against RG cells (unknown origin) assessed as inhibition of cell growth incubated for 1 hr by MTT assay. It is filed as functional, cell-based.
The test system of another data set is A549. Briefly: Cytotoxicity against human A549 cells assessed as inhibition of cell growth incubated for 1 hr by MTT assay. It is filed as functional, cell-based. Particulars: A549, 1 h.
The nature of data set [2]: Cytotoxicity against HK-2 cells assessed as inhibition of cell growth incubated for 1 hr by MTT assay. It is filed as toxicity, cell-based. Particulars: human.
Data set [3] can be described thus: Therapeutic index, ratio of HC10 for mouse RBC to IC50 for cytotoxicity against human HeLa cells. It is filed as toxicity, cell-based. The following applies: mouse RBC and HeLa cells, read-out: TI.
Data set [4] in a line: Therapeutic index, ratio of HC10 for mouse RBC to IC50 for cytotoxicity against human MCF7 cells. It is filed as toxicity, cell-based. Particulars: mouse RBC and MCF7 cells, read-out: TI.
The nature of data set [5]: Therapeutic index, ratio of HC10 for mouse RBC to IC50 for cytotoxicity against RG cells (unknown origin). It is filed as toxicity, cell-based. Particulars: mouse RBC and RG cells, read-out: TI.
The nature of data set [6]: Therapeutic index, ratio of HC10 for mouse RBC to IC50 for cytotoxicity against human A549 cells. It counts as toxicity, cell-based. The following applies: mouse RBC and A549 cells, read-out: TI.

Non-standard residues stand in square brackets, D forms with d. Residues, ends and D or L forms follow the SMILES beside them. Nle(6-COOH) = N[C@@H](CCCCC(=O)O)C(=O)O; Asu = N[C@@H](CCCCCC(=O)O)C(=O)O

Take `CC(C)C[C@H](NC(=O)[C@H](CC(C)C)NC(=O)[C@H](CCCCN)NC(=O)[C@H](CCCCN)NC(=O)[C@H](CC(C)C)NC(=O)[C@H](CC(C)C)NC(=O)[C@H](CCCCN)NC(=O)[C@H](CCCCN)NC(=O)[C@H](CC(C)C)NC(=O)[C@H](CCC(=O)O)NC(=O)[C@H](CCCCN)NC(=O)[C@H](CCCCN)NC(=O)[C@H](CC(C)C)NC(=O)[C@@H](N)CC(C)C)C(N)=O` (H-LLKKELKKLLKKLL-NH2): the IC50 (commonly the concentration needed to halve the response being measured) in the data set with HeLa amounted to 14.4 µM; with MCF7, 21.4 µM; in [1], 24.1 µM; with A549, 17.3 µM. Moreover, the IC50 at 1 h in data set [2] amounted to 37.3 µM. In addition, the selectivity ratio in [3] worked out at 12; in data set [4] it was 8.02; in data set [5] it was 7.14; in data set [6], 9.94.

Consider `CC(C)C[C@H](NC(=O)[C@H](CC(C)C)NC(=O)[C@H](CCCCN)NC(=O)[C@H](CCCCN)NC(=O)[C@H](CC(C)C)NC(=O)[C@H](CC(C)C)NC(=O)[C@H](CCCCN)NC(=O)[C@H](CCCCN)NC(=O)[C@H](CCC(=O)O)NC(=O)[C@H](CC(C)C)NC(=O)[C@H](CCCCN)NC(=O)[C@H](CCCCN)NC(=O)[C@H](CC(C)C)NC(=O)[C@@H](N)CC(C)C)C(N)=O` (H-LLKKLEKKLLKKLL-NH2), for which the IC50 with HeLa came to 104 µM; in the data set with MCF7, 202 µM; in data set [1] it was 418 µM; in the data set with A549, 530 µM. In addition, the IC50 at 1 h in [2] stood at 264 µM. The selectivity ratio in data set [3] was 4.8; in data set [4], 2.47; in [5], 1.2; in data set [6], 0.943.

As for `CC(C)C[C@H](NC(=O)[C@H](CC(C)C)NC(=O)[C@H](CCCCN)NC(=O)[C@H](CCCCN)NC(=O)[C@H](CC(C)C)NC(=O)[C@H](CC(C)C)NC(=O)[C@H](CCCCN)NC(=O)[C@H](CCC(=O)O)NC(=O)[C@H](CC(C)C)NC(=O)[C@H](CC(C)C)NC(=O)[C@H](CCCCN)NC(=O)[C@H](CCCCN)NC(=O)[C@H](CC(C)C)NC(=O)[C@@H](N)CC(C)C)C(N)=O` (H-LLKKLLEKLLKKLL-NH2), the concentration for half-maximal inhibition (IC50) in the data set with HeLa is 2.87 µM; in the data set on MCF7, 4.67 µM; in [1] it was 4.5 µM; in the data set with A549, 3.93 µM. Besides, the IC50 at 1 h in data set [2] worked out at 4.9 µM. Moreover, the selectivity ratio in data set [3] was 3.41; in [4], 2.1; in data set [5], 2.18; in data set [6] it was 2.49.

Regarding `CC(C)C[C@H](NC(=O)[C@H](CC(C)C)NC(=O)[C@H](CCCCN)NC(=O)[C@H](CCCCN)NC(=O)[C@H](CC(C)C)NC(=O)[C@H](CC(C)C)NC(=O)[C@H](CCC(=O)O)NC(=O)[C@H](CCCCN)NC(=O)[C@H](CC(C)C)NC(=O)[C@H](CC(C)C)NC(=O)[C@H](CCCCN)NC(=O)[C@H](CCCCN)NC(=O)[C@H](CC(C)C)NC(=O)[C@@H](N)CC(C)C)C(N)=O` (H-LLKKLLKELLKKLL-NH2), the IC50 was 4.54 µM with HeLa, 3.95 µM with MCF7, 4.74 µM in data set [1] and 3.75 µM in the data set with A549. The IC50 at 1 h in data set [2] is 3.8 µM. The selectivity ratio in [3] was determined as 1.15; in data set [4] it was 1.32; in data set [5], 1.1; in data set [6], 1.39.

Take `CC(C)C[C@H](NC(=O)[C@H](CC(C)C)NC(=O)[C@H](CCCCN)NC(=O)[C@H](CCCCN)NC(=O)[C@H](CC(C)C)NC(=O)[C@H](CCC(=O)O)NC(=O)[C@H](CCCCN)NC(=O)[C@H](CCCCN)NC(=O)[C@H](CC(C)C)NC(=O)[C@H](CC(C)C)NC(=O)[C@H](CCCCN)NC(=O)[C@H](CCCCN)NC(=O)[C@H](CC(C)C)NC(=O)[C@@H](N)CC(C)C)C(N)=O` (H-LLKKLLKKELKKLL-NH2): the half-maximal inhibitory concentration (IC50) in the data set with HeLa was found to be 120 µM; with MCF7 it was 181 µM; in [1], 217 µM; in the data set on A549, 482 µM. The IC50 at 1 h in [2] worked out at 146 µM. In addition, the selectivity ratio in data set [3] amounted to 4.18; in data set [4] it was 2.76; in [5], 2.3; in [6] it was 1.04.

Regarding `CC(C)C[C@H](NC(=O)[C@H](CC(C)C)NC(=O)[C@H](CCCCN)NC(=O)[C@H](CCCCN)NC(=O)[C@H](CCC(=O)O)NC(=O)[C@H](CC(C)C)NC(=O)[C@H](CCCCN)NC(=O)[C@H](CCCCN)NC(=O)[C@H](CC(C)C)NC(=O)[C@H](CC(C)C)NC(=O)[C@H](CCCCN)NC(=O)[C@H](CCCCN)NC(=O)[C@H](CC(C)C)NC(=O)[C@@H](N)CC(C)C)C(N)=O` (H-LLKKLLKKLEKKLL-NH2), the IC50 with HeLa worked out at 43.7 µM; with MCF7 it was 97.1 µM; in [1], 78.9 µM; in the data set on A549, 87.1 µM. Further, the IC50 at 1 h in data set [2] came out at 92.5 µM. The selectivity ratio is 11.4 in data set [3], 5.15 in data set [4], 6.34 in [5] and 5.74 in data set [6].

With `CC(C)C[C@H](NC(=O)[C@H](CC(C)C)NC(=O)[C@H](CCCCN)NC(=O)[C@H](CCC(=O)O)NC(=O)[C@H](CC(C)C)NC(=O)[C@H](CC(C)C)NC(=O)[C@H](CCCCN)NC(=O)[C@H](CCCCN)NC(=O)[C@H](CC(C)C)NC(=O)[C@H](CC(C)C)NC(=O)[C@H](CCCCN)NC(=O)[C@H](CCCCN)NC(=O)[C@H](CC(C)C)NC(=O)[C@@H](N)CC(C)C)C(N)=O` (H-LLKKLLKKLLEKLL-NH2), the IC50 with HeLa amounted to 5.53 µM; in the data set on MCF7, 7.66 µM; in [1], 5.73 µM; with A549, 5.01 µM. For the same molecule, in data set [2], the IC50 at 1 h is 4.49 µM. Also, the selectivity ratio was found to be 3.15 in data set [3], 2.28 in [4], 3.04 in [5] and 3.48 in data set [6].

Regarding `CC(C)C[C@H](NC(=O)[C@H](CC(C)C)NC(=O)[C@H](CCC(=O)O)NC(=O)[C@H](CCCCN)NC(=O)[C@H](CC(C)C)NC(=O)[C@H](CC(C)C)NC(=O)[C@H](CCCCN)NC(=O)[C@H](CCCCN)NC(=O)[C@H](CC(C)C)NC(=O)[C@H](CC(C)C)NC(=O)[C@H](CCCCN)NC(=O)[C@H](CCCCN)NC(=O)[C@H](CC(C)C)NC(=O)[C@@H](N)CC(C)C)C(N)=O` (H-LLKKLLKKLLKELL-NH2), the concentration for half-maximal inhibition (IC50) was 14.7 µM in the data set on HeLa, 11.8 µM in the data set on MCF7, 6.16 µM in [1] and 10.9 µM in the data set with A549. The concentration for half-maximal inhibition (IC50) at 1 h in data set [2] is 10.8 µM. Further, the selectivity ratio worked out at 0.352 in data set [3], 0.438 in data set [4], 0.838 in data set [5] and 0.474 in data set [6].

Regarding `CC(C)C[C@H](NC(=O)[C@H](CCC(=O)O)NC(=O)[C@H](CCCCN)NC(=O)[C@H](CCCCN)NC(=O)[C@H](CC(C)C)NC(=O)[C@H](CC(C)C)NC(=O)[C@H](CCCCN)NC(=O)[C@H](CCCCN)NC(=O)[C@H](CC(C)C)NC(=O)[C@H](CC(C)C)NC(=O)[C@H](CCCCN)NC(=O)[C@H](CCCCN)NC(=O)[C@H](CC(C)C)NC(=O)[C@@H](N)CC(C)C)C(N)=O` (H-LLKKLLKKLLKKEL-NH2), the IC50 came out at 32.2 µM with HeLa, 101 µM with MCF7, 75.9 µM in data set [1] and 75.3 µM in the data set on A549. Besides, the IC50 at 1 h in [2] is 73 µM. Besides, the selectivity ratio was 13.7 in [3], 4.38 in data set [4], 5.81 in [5] and 5.86 in data set [6].

For the molecule `CC(C)C[C@H](NC(=O)[C@H](CCCCN)NC(=O)[C@H](CCCCN)NC(=O)[C@H](CC(C)C)NC(=O)[C@H](CC(C)C)NC(=O)[C@H](CCCCN)NC(=O)[C@H](CCCCN)NC(=O)[C@H](CC(C)C)NC(=O)[C@H](CC(C)C)NC(=O)[C@H](CCCCN)NC(=O)[C@H](CCCCN)NC(=O)[C@H](CC(C)C)NC(=O)[C@@H](N)CC(C)C)C(=O)N[C@@H](CC(=O)O)C(N)=O` (H-LLKKLLKKLLKKLD-NH2), the IC50 was 12.1 µM in the data set with HeLa, 30.7 µM in the data set with MCF7, 32.8 µM in data set [1] and 18.8 µM with A549. Moreover, the IC50 at 1 h in data set [2] was 50.3 µM. In addition, the selectivity ratio was determined as 31.1 in data set [3], 12.2 in data set [4], 11.4 in data set [5] and 20 in [6].

On to `CC(C)C[C@H](NC(=O)[C@H](CCCCN)NC(=O)[C@H](CCCCN)NC(=O)[C@H](CC(C)C)NC(=O)[C@H](CC(C)C)NC(=O)[C@H](CCCCN)NC(=O)[C@H](CCCCN)NC(=O)[C@H](CC(C)C)NC(=O)[C@H](CC(C)C)NC(=O)[C@H](CCCCN)NC(=O)[C@H](CCCCN)NC(=O)[C@H](CC(C)C)NC(=O)[C@@H](N)CC(C)C)C(=O)N[C@@H](CCCCCC(=O)O)C(N)=O` (H-LLKKLLKKLLKKL[Asu]-NH2), for which the IC50 in the data set on HeLa amounted to 5.23 µM; in the data set with MCF7, 8.55 µM; in [1], 12.8 µM; in the data set on A549 it was 5.97 µM. Besides, the IC50 at 1 h in [2] turned out to be 15.3 µM. For the same molecule, the selectivity ratio in data set [3] is 15.4; in data set [4] it was 9.43; in data set [5] it was 6.3; in data set [6], 13.5.

As to `CC(C)C[C@H](NC(=O)[C@H](CCCCN)NC(=O)[C@H](CCCCN)NC(=O)[C@H](CC(C)C)NC(=O)[C@H](CC(C)C)NC(=O)[C@H](CCCCN)NC(=O)[C@H](CCCCN)NC(=O)[C@H](CC(C)C)NC(=O)[C@H](CC(C)C)NC(=O)[C@H](CCCCN)NC(=O)[C@H](CCCCN)NC(=O)[C@H](CC(C)C)NC(=O)[C@@H](N)CC(C)C)C(=O)N[C@@H](CCCCC(=O)O)C(N)=O` (H-LLKKLLKKLLKKL[Nle(6-COOH)]-NH2), the IC50 with HeLa was 7.59 µM; in the data set on MCF7, 14 µM; in data set [1], 20.4 µM; with A549 it was 11.2 µM. In addition, the IC50 at 1 h in [2] was 26.4 µM. Moreover, the selectivity ratio worked out at 25.4 in data set [3], 13.8 in data set [4], 9.42 in data set [5] and 17.1 in data set [6].

(Values after ChEMBL document CHEMBL5584231, “Rational design of a new short anticancer peptide with good potential for cancer treatment” (Eur J Med Chem, 2024).)
